This note sets out measurements from US5488055A, “Substituted N-cycloalkylmethyl-1H-pyrazolo(3,4-b)quinolin-4 amines and compositions and methods of use thereof” (Sanofi Winthrop Inc., priority 1995, dated 1996).

For this assay, the system named is cGMP-PDE V. The assay is described as follows: c-GMP-PDE V inhibitory activity. The class given is biochemical, various animal species and man. On the procedure: The cGMP-PDE and other PDE isozymes were isolated from cardiovascular tissues (heart and aorta) of various animal species and man by anion-exchange and affinity chromatography as described by Silver et al., Sec. Messeng. Phos. 13:13-25, 1991; PDE activity, in the presence and absence of test compounds was determined essentially as described by Thompson et al., Adv. Cyclic Nucleotide Res. 10:69-92. To determine the potency and selectivity of compounds as PDE inhibitors, compounds are screened for their effect on cyclic nucleotide hydrolysis at 10 μM. […] The IC50 values are calculated from concentration-response curves as described by Tallarida and Murray, Manual of Pharmacologic Calculations with Computer Programs, Procedure 8, Graded Dose-response, pp. 14-19, Springer-Verlag, New York, 1981.

Where [1] appears, read: separate experimental runs, first value.
[2] abbreviates: separate experimental runs, second value.
[3] abbreviates: separate experimental runs, third value.

Counter-ions that a name gives are not always drawn. Like-named read-outs stand apart in the source and are kept apart here.

By IC50 is commonly meant the concentration at which inhibition is half-maximal. The low end stands for inhibition by little substance, the high end for a need for much substance. Compound `CCn1ncc2c(NC[C@@H]3CCC[C@H](O)C3)c3cc([N+](=O)[O-])ccc3nc21` (relative stereo) [Example 36(a), 1-ethyl-6-nitro-N-(3-hydroxycyclohexylmethyl)-1 H-pyrazolo[3,4-b]quinolin-4-amine] displayed an IC50 of 10.1 nM.
On to `CCn1ncc2c(NC[C@@H]3CCC[C@@H](O)C3)c3cc([N+](=O)[O-])ccc3nc21` (relative stereo) [Example 36(b), 1-ethyl-6-nitro-N-(3-hydroxycyclohexylmethyl)-1H-pyrazolo[3,4-b]quinolin-4-amine], for which the IC50 was 19.3 nM.
On the same count and under the same terms, then `CCn1ncc2c(N[C@@H](C)C3CCCCC3)c3cc([S+](C)[O-])ccc3nc21` (single isomer, unassigned) [48(e), 1-ethyl-6-(methylsulfinyl)-N-[S(+)-1-(cyclohexyl)ethyl]-1H-pyrazolo[3,4-b]quinolin-4-amine], with 7.6 nM.
The compound `CCn1ncc2c(N[C@@H](C)C3CCCCC3)c3cc([S+](C)[O-])ccc3nc21` (single isomer, unassigned) [Example 48(d), 1-ethyl-6-(methylsulfinyl)-N-[S(+)-1-(cyclohexyl)ethyl]-1H-pyrazolo[3,4-b]quinolin-4-amine] displayed an IC50 of 4.2 nM.
`CCn1nc(C)c2c(NCC3CCCCC3)c3ccccc3nc21` [2(c), 1-ethyl-3-methyl-N-(cyclohexylmethyl)-1H-pyrazolo[3,4-b]quinolin-4-amine hydrochloride] showed an IC50 of 82 nM.
Same read-out and setting: to `CCn1ncc2c(NCC3CCCCC3)c3cccc(OC)c3nc21` [9(f), 1-ethyl-8-methoxy-N-(cyclohexylmethyl)-1H-pyrazolo[3,4-b]quinolin-4-amine] belongs 610 nM; to `c1ccc(Cn2ncc3c(NCC4CCCCC4)c4ccccc4nc32)cc1` [10(d), 1-phenylmethyl-N-(cyclohexylmethyl)-1H-pyrazolo[3,4-b]quinolin-4-amine], 260 nM; to `c1ccc2c(NCC3CCCCC3)c3cnn(C4CCCC4)c3nc2c1` [11(e), 1-cyclopentyl-N-(cyclohexylmethyl)-1H-pyrazolo[3,4-b]quinolin-4-amine], 150 nM.
Consider `CCn1ncc2c(NCC3CCCCC3)c3ccc([N+](=O)[O-])cc3nc21` [16(c), 1-ethyl-7-nitro-N-(cyclohexylmethyl)-1H-pyrazolo[3,4-b]quinolin-4-amine], for which the IC50 worked out at 150 nM.
The compound `CCn1ncc2c(NCC3CCCCC3)c3ccc(OC)cc3nc21` [18(d), 1-ethyl-7-methoxy-N-(cyclohexylmethyl)-1H-pyrazolo[3,4-b]quinolin-4-amine] came in with an IC50 of 147 nM.
Consider `CCn1ncc2c(NCC3CCC(O)CC3)c3cc(OC)ccc3nc21` (stereo not drawn) [19(d), 1-ethyl-6-methoxy-N-(4-hydroxycyclohexylmethyl)-1H-pyrazolo[3,4-b]quinolin-4-amine], for which the “Percent Inhibition cGMP-PDE V” value (0.1 μM) came out at 28%.
Consider `CCn1ncc2c(NCC3CCCCC3)c3cc(NC(C)=O)ccc3nc21` [24(c), 1-ethyl-6-acetamido-N-(cyclohexylmethyl)-1H-pyrazolo[3,4-b]quinolin-4-amine], for which half-maximal inhibition (IC50) required 51 nM.
With `CCn1ncc2c(NCC3CCC(=O)CC3)c3cc(OC)ccc3nc21` [28(b), 1-ethyl-6-methoxy-N-[4-oxocyclohexylmethyl]-1H-pyrazolo[3,4-b]quinolin-4-amine], the “Percent Inhibition cGMP-PDE V” value was found to be 0% (0.1 μM), 25% (1 μM) and 79% (10 μM).
For the compound `CCn1ncc2c(NCC3CCCCC3)c3cc(C(=O)OC)ccc3nc21` [29(d), 1-ethyl-6-methoxycarbonyl-N-(cyclohexylmethyl)-1H-pyrazolo[3,4-b]quinolin-4-amine], it took 15 nM to reach half-maximal inhibition (IC50).
Same read-out and setting: to `CCn1ncc2c(N[C@@H](CO)C3CCCCC3)c3cc([N+](=O)[O-])ccc3nc21` [40(c), 1-ethyl-6-nitro-N-[R-(-)-1-(cyclohexyl)ethanol]-1H-pyrazolo[3,4-b]quinolin-4-amine] belongs 2.4 nM.
Same read-out and setting: to `CCn1ncc2c(N[C@@H](C)C3CCCCC3)c3cc(C#N)ccc3nc21` [41(c), 1-ethyl-6-cyano-N-[S(+)-(1-cyclohexyl)ethyl]-1H-pyrazolo[3,4-b]quinolin-4-amine] belongs 0.96 nM; to `CCn1ncc2c(N[C@@H](C)C3CCCCC3)c3cc(OC)c(OC)cc3nc21` [42(c)], 112 nM.
As for `CCn1ncc2c(NCC3CCCCC3)c3cccc(Br)c3nc21` [44(d), 1-ethyl-8-bromo-N-(cyclohexylmethyl)-1H-pyrazolo[3,4-b]quinolin-4-amine], the “Percent Inhibition cGMP-PDE V” value was 17% (0.01 μM), 20% (0.1 μM) and 70% (1 μM).
`CCN(CC)S(=O)(=O)c1ccc2nc3c(cnn3C(C)C)c(NCC3CCCCC3)c2c1` [45(d), 1-isopropyl-6-(diethylaminosulfonyl)-N-(cyclohexylmethyl)-1H-pyrazolo[3,4-b]quinolin-4-amine] yielded an IC50 of 44 nM.
Take `CCn1ncc2c(N[C@@H](C)C3CCCCC3)c3cc(-c4noc(C)n4)ccc3nc21` [47(c)]: 23 nM corresponded to half-maximal inhibition (IC50).
In turn, `CCn1ncc2c(N[C@@H](C)C3CCCCC3)c3cc(S(=O)(=O)C(F)(F)F)ccc3nc21` [53(c), 1-ethyl-6-(trifluoromethylsulfonyl)-N-[S (+)-1-(cyclohexyl)ethyl]-1H-pyrazolo[3,4-b]quinolin-4-amine] had an IC50 of 5.4 nM.
On the same count and under the same terms, then `CCn1ncc2c(NCC3CCC(C(=O)OC)CC3)c3ccccc3nc21` (stereo not drawn) [Example 3, 1-ethyl-N-[(4-methoxycarbonylcyclohexyl)methyl]-1H-pyrazolo[3,4-b]quinolin-4-amine], with 300 nM.
Still for that read-out and setting: then `CCn1ncc2c(NCC3CC3)c3ccccc3nc21` [Example 4, 1-ethyl-N-(cyclopropylmethyl)-1H-pyrazolo[3,4-b]quinolin-4-amine], with 3000 nM.
Regarding `CCn1ncc2c(NCC3CCC(C(=O)OCSC)CC3)c3ccccc3nc21` (stereo not drawn) [Example 5, 1-ethyl-N-[[4-(methylthiomethoxycarbonyl)cyclohexyl]methyl]-1H-pyrazolo[3,4-b]quinolin-4-amine], the “Percent Inhibition cGMP-PDE V” value (0.1 μM) is 4%, the “Percent Inhibition cGMP-PDE V” value (1 μM) came out at 34% and the “Percent Inhibition cGMP-PDE V” value (10 μM) was determined as 81%.
Turning to `CCn1ncc2c(NCC3CCCCC3)c3cc(OCCN(C)C)ccc3nc21` [Example 12], the midpoint of inhibition, the IC50, lay at 240 nM.
Still for that read-out and setting: then `CCn1ncc2c(NCC3CCCCC3)c3cc(N)ccc3nc21` [Example 20, 1-ethyl-6-amino-N-(cyclohexylmethyl)-1H-pyrazolo[3,4-b]quinolin-4-amine], with 300 nM.
For the compound `CCn1ncc2c(NCC3CCCCC3)c3ccc(N)cc3nc21` [Example 25, 1-ethyl-7-amino-N-(cyclohexylmethyl)-1H-pyrazolo[3,4-b]quinolin-4-amine], the “Percent Inhibition cGMP-PDE V” value is reported as 7% (0.1 μM), 68% (1 μM) and 95% (10 μM).
With `CCn1ncc2c(N[C@@H](C)C3CCCCC3)c3cc(OC)ccc3nc21` [Example 26, 1-ethyl-6-methoxy-N-[S(+)-1-(cyclohexyl)ethyl]-1H-pyrazolo[3,4-b]quinolin-4-amine], the IC50 under setting [1] stood at 2.6 nM and the IC50 under setting [2] worked out at 5.2 nM.
Compound `CCn1ncc2c(N[C@H](C)C3CCCCC3)c3cc(OC)ccc3nc21` [Example 27, 1-ethyl-6-methoxy-N-[R(-)-1-(cyclohexyl)ethyl]-1H-pyrazolo[3,4-b]quinolin-4-amine] displayed an IC50 under setting [1] of 340 nM, an IC50 under setting [2] of 210 nM and an IC50 under setting [3] of 266 nM.
`CCn1ncc2c(NCC3CCCCC3)c3cc(C(=O)O)ccc3nc21` [Example 30, 1-ethyl-6-carboxy-N-(cyclohexylmethyl)-1H-pyrazolo[3,4-b]quinolin-4-amine] returned an IC50 of 30 nM.
Same read-out and setting: then `CCn1ncc2c(NCC3CCCCC3)c3cc(-c4ccncc4)ccc3nc21` [Example 31], with 32 nM.
On to `CCn1ncc2c(NCC3(O)CCCCC3)c3cc(OC)ccc3nc21` [Example 32, 1-ethyl-6-methoxy-N-[(1-hydroxycyclohexyl)methyl]-1H-pyrazolo[3,4-b]quinolin-4-amine], for which the “Percent Inhibition cGMP-PDE V” value (0.1 μM) came out at 43%, the “Percent Inhibition cGMP-PDE V” value (1 μM) was 79% and the “Percent Inhibition cGMP-PDE V” value (10 μM) came out at 96%.
`CCn1ncc2c(NCC3CCCCC3)c3cc(OCCN4CCOCC4)ccc3nc21` [Example 33, 1-ethyl-6-[2-(4-morpholinyl)ethoxy]-N-(cyclohexylmethyl)-1H-pyrazolo[3,4-b]quinolin-4-amine] came in with a 50% inhibitory concentration (IC50) of 92 nM.
`CCn1ncc2c(N[C@H](C)C3CCCCC3)c3cc([N+](=O)[O-])ccc3nc21` [Example 35, 1-ethyl-6-nitro-N-[R (-)-1(cyclohexyl)ethyl]-1H-pyrazolo[3,4-b]quinolin-4amine] displayed an IC50 under setting [1] of 8.6 nM, an IC50 under setting [2] of 9.5 nM and an IC50 under setting [3] of 9.5 nM.
Take `C[C@H](Nc1c2ccccc2nc2c1cnn2Cc1ccccc1)C1CCCCC1` [Example 38, 1-benzyl-N-[S (+)-1(cyclohexyl)ethyl]-1H-pyrazolo[3,4-b]quinolin-4-amine]: the “Percent Inhibition cGMP-PDE V” value reads like this: (0.01 μM) 9%; (0.1 μM) 22%; (1 μM) 77%.
In the case of `CCn1ncc2c(N[C@@H](C)C3CCCCC3)c3ccccc3nc21` [Example 39, 1-ethyl-N-[S(+)-1-(cyclohexyl)ethyl]-1H-pyrazolo[3,4-b]quinolin-4-amine], it took 15 nM to reach half-maximal inhibition (IC50).
The same measure, in the same setting: to `CCn1ncc2c(N[C@@H](C)C3CCCCC3)c3cc(-n4ccnc4)ccc3nc21` [Example 43, 1-ethyl-6-(1-imidazolyl)-N-[S(+)-1-(cyclohexyl)ethyl]-1H-pyrazolo[3,4-b]quinolin-4-amine] belongs 27 nM.
